Results as given in patent US9259001B2, “5-phenyl-substituted N-(tetrazol-5-yl) aryl carboxylic acid amides and N-(triazol-5-yl) aryl carboxylic acid amides, and use thereof as herbicides” (BAYER INTELLECTUAL PROPERTY GMBH, priority 2011, dated 2016).

Legend:
Assay in all cases: Comparative tests by the post-emergence method
Assay type in all cases: in vivo
Abutilon theophrasti = tested on: Abutilon theophrasti
Description: (§1) Seeds of monocotyledonous and dicotyledonous weed and crop plants are placed in sandy loam in wood-fiber pots, covered with soil and cultivated in a greenhouse under good growth conditions. 2 to 3 weeks after sowing, the test plants are treated at the one-leaf stage. The inventive compounds formulated in the form of wettable powders (WP) or as emulsion concentrates (EC) are then sprayed onto the green parts of the plants as an aqueous suspension or emulsion at a water application rate of 600 to 800 I/ha (converted) with addition of 0.2% wetting agent. After the test plants have been left to stand in the greenhouse under optimal growth conditions for about 3 weeks, the action of the formulations is assessed visually in comparison to untreated controls (herbicidal action in percent (%): 100% activity=the plants have died, 0% activity=like control plants). Here, the compounds Nos. 1-02, 1-03, 1-05, 1-06, 1-14, 1-15, 2-01, 2-02, 2-03, 2-04, 2-05, 2-06, 2-16, 2-17, 2-18, 2-19, 2-20, 2-21, 2-22, 2-23, 2-24, 2-25, 2-26, 2-27, 2-28, 2-29, 2-30, 2-31, 2-33, 2-34, 2-35, 2-39, 2-40, 2-41, 2-43, 2-44, 2-45, 2-46, 2-47, 2-48, 2-49, 2-50, 2-51, 2-52, 2-53, 2-60, 2-61, 2-62, 2-63, 2-64, 2-65, 2-69 and 2-83 each show, at an application rate of 80 g/ha, an activity of at least 80% against Abutilon theophrasti and Veronica persica. The compounds Nos. 1-14, 2-32, 2-42, 2-66, 2-67, 2-69 and 2-83, at an application rate of 80 g/ha, each show an activity of at least 80% against Amaranthus retroflexus and Stellaria media.
(§2) For comparative tests, the compound No. 1-15 according to the invention and the compounds No. 118 and No. 119 known from EP 0 049 071 A1 were tested by the post-emergence method at various dosages against a number of harmful plants.
(§3) ABUTH Abutilon theophrasti PHBPU Pharbitis purpureum

Pharbitis purpureum = tested on: Pharbitis purpureum
Description: as §1, §2, §3

Veronica persica = tested on: Veronica persica
Description: as §1, §2

SMILES | Herbicidal action against ABUTH (Abutilon theophrasti; dosage 5 g/ha) [%] | Herbicidal action against ABUTH (Abutilon theophrasti; dosage 20 g/ha) [%] | Herbicidal action against ABUTH (Abutilon theophrasti; dosage 80 g/ha) [%] | Herbicidal action against PHBPU (Pharbitis purpureum; dosage 5 g/ha) [%] | Herbicidal action against PHBPU (Pharbitis purpureum; dosage 20 g/ha) [%] | Herbicidal action against PHBPU (Pharbitis purpureum; dosage 80 g/ha) [%] | Herbicidal action against VERPE (Veronica persica; dosage 5 g/ha) [%] | Herbicidal action against VERPE (Veronica persica; dosage 20 g/ha) [%] | Herbicidal action against VERPE (Veronica persica; dosage 80 g/ha) [%]
Cc1cc(C(=O)Nc2ncnn2C)c(Cl)cc1S(C)(=O)=O [No. 1-15] | 90 | 90 | 90 | 80 | 80 | 80 | 40 | 80 | 80
CCC(C)(CC)c1nnc(NC(=O)c2c(OC)cccc2OC)[nH]1 [Compound No. 118, N-[5-(1-ethyl-1-methylpropyl)-4H-1,2,4-triazol-3-yl]-2,6-dimethoxybenzamide] | 0 | 0 | 0 | 0 | 0 | 0 | 0 | 0 | 0
COc1cccc(OC)c1C(=O)Nc1nc[nH]n1 [Compound No. 119, N-(1H-1,2,4-triazol-3-yl)-2,6-dimethoxybenzamide] | 0 | 0 | 0 | 0 | 0 | 0 | 0 | 0 | 0
